Measurements as given in patent publication US8030498B2, “Benzoylpyrazole compounds and herbicides containing them” (Ishihara Sangyo Kaisha, Ltd., priority 2005, dated 2011).

Tests used:
[1] = system: corn (Zea mays L.); experiment: Test Example 1: foliar treatment, growth inhibition rate, corn; assay type: in vivo; details: visually observed 17th to 23rd day after application
Method in brief: (§1)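 Potted upland soil; compounds as wettable powders or emulsifiable concentrates diluted in water at 500 L/ha plus 0.1 vol % spreader, foliar-sprayed at defined leaf stages (rice 1.0–2.5, wheat 1.7–3.4, corn 2.0–3.5, greenfoxtail 1.0–3.0). Growth inhibition (0–100%) scored visually 17–23 days after application.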

[2] = system: crabgrass (Digitaria sanguinalis L.); experiment: Test Example 1: foliar treatment, growth inhibition rate, crabgrass; assay type: in vivo; details: visually observed 17th to 23rd day after application
Method in brief: (§2)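 Visual scoring of growth inhibition, 0% (untreated) to 100% (complete kill), on days 17–23 following post-emergence spray of formulated compound in water (500 L/ha, 0.1 vol % spreader); plants treated at set leaf stages, e.g. corn 2.0–3.5, wheat 1.7–3.4.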

[3] = system: greenfoxtail (Setaria viridis L.); experiment: Test Example 1: foliar treatment, growth inhibition rate, greenfoxtail; assay type: in vivo; details: visually observed 17th to 23rd day after application
Method in brief: as §1

[4] = system: wheat (Triticum spp.); experiment: Test Example 1: foliar treatment, growth inhibition rate, wheat; assay type: in vivo; details: visually observed 17th to 23rd day after application
Method in brief: as §1

[5] = system: wheat; experiment: Test Example 2: soil application on the day after sowing, growth inhibition rate, wheat; assay type: in vivo, Triticum spp.; details: 250 g/ha active ingredient, observed on 19th to 24th day
Method in brief: (§3)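 Upland soil pots sown with crop and weed seeds; next day wettable powder or emulsifiable concentrate at prescribed active-ingredient amounts, diluted to 500 L/ha water, sprayed onto soil. Growth inhibition scored visually 19–24 days later, 0 (as untreated) to 100% (complete kill).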

[6] = system: crabgrass; experiment: Test Example 2: soil application on the day after sowing, growth inhibition rate, crabgrass; assay type: in vivo, Digitaria sanguinalis L.; details: 250 g/ha active ingredient, observed on 19th to 24th day
Method in brief: as §3

[7] = system: rice; experiment: Test Example 2: soil application on the day after sowing, growth inhibition rate, rice; assay type: in vivo, Oryza sativa L.; details: 250 g/ha active ingredient, observed on 19th to 24th day
Method in brief: as §3

[8] = system: barnyardgrass; experiment: Test Example 2: soil application on the day after sowing, growth inhibition rate, barnyardgrass; assay type: in vivo, Echinochloa crus-galli L.; details: 250 g/ha active ingredient, observed on 19th to 24th day
Method in brief: as §3

[9] = system: corn; experiment: Test Example 2: soil application on the day after sowing, growth inhibition rate, corn; assay type: in vivo, Zea mays L.; details: 250 g/ha active ingredient, observed on 19th to 24th day
Method in brief: as §3

[10] = system: redroot pigweed (Amaranthus retroflexus L.); experiment: Test Example 1: foliar treatment, growth inhibition rate, redroot pigweed; assay type: in vivo; details: visually observed 17th to 23rd day after application
Method in brief: as §2

[11] = system: prickly sida (Sida spinosa L.); experiment: Test Example 1: foliar treatment, growth inhibition rate, prickly sida; assay type: in vivo; details: visually observed 17th to 23rd day after application
Method in brief: as §2

[12] = system: barnyardgrass (Echinochloa crus-galli L.); experiment: Test Example 1: foliar treatment, growth inhibition rate, barnyardgrass; assay type: in vivo; details: visually observed 17th to 23rd day after application
Method in brief: (§4)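 Seeds were sown in upland field soil in pots. At the target leaf stage (corn 2.0–3.5; greenfoxtail 1.0–3.0; rice 1.0–2.5; wheat 1.7–3.4), the formulated compound, diluted at a water volume of 500 L/ha with 0.1 vol % spreader, was applied by small sprayer. Plants were rated by eye on days 17–23.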

[13] = system: prickly sida; experiment: Test Example 2: soil application on the day after sowing, growth inhibition rate, prickly sida; assay type: in vivo, Sida spinosa L.; details: 250 g/ha active ingredient, observed on 19th to 24th day
Method in brief: as §3

[14] = system: velvetleaf; experiment: Test Example 2: soil application on the day after sowing, growth inhibition rate, velvetleaf; assay type: in vivo, Abutilon theophrasti MEDIC.; details: 250 g/ha active ingredient, observed on 19th to 24th day
Method in brief: as §3

[15] = system: greenfoxtail; experiment: Test Example 2: soil application on the day after sowing, growth inhibition rate, greenfoxtail; assay type: in vivo, Setaria viridis L.; details: 250 g/ha active ingredient, observed on 19th to 24th day
Method in brief: as §3

[16] = system: soybean; experiment: Test Example 2: soil application on the day after sowing, growth inhibition rate, soybean; assay type: in vivo, Glycine max Merr.; details: 250 g/ha active ingredient, observed on 19th to 24th day
Method in brief: as §3

[17] = system: rice (Oryza sativa L.); experiment: Test Example 1: foliar treatment, growth inhibition rate, rice; assay type: in vivo; details: visually observed 17th to 23rd day after application
Method in brief: as §1

[18] = system: redroot pigweed; experiment: Test Example 2: soil application on the day after sowing, growth inhibition rate, redroot pigweed; assay type: in vivo, Amaranthus retroflexus L.; details: 250 g/ha active ingredient, observed on 19th to 24th day
Method in brief: as §3

[19] = system: velvetleaf (Abutilon theophrasti MEDIC.); experiment: Test Example 1: foliar treatment, growth inhibition rate, velvetleaf; assay type: in vivo; details: visually observed 17th to 23rd day after application
Method in brief: as §4

[20] = system: soybean (Glycine max Merr.); experiment: Test Example 1: foliar treatment, growth inhibition rate, soybean; assay type: in vivo; details: visually observed 17th to 23rd day after application
Method in brief: as §2

| Structure (SMILES) | Growth inhibition rate (%) Corn ([1]; 31 g/ha active ingredient) [%] | Growth inhibition rate (%) Crabgrass ([2]; 31 g/ha active ingredient) [%] | Growth inhibition rate (%) Greenfoxtail ([3]; 31 g/ha active ingredient) [%] | Growth inhibition rate (%) Wheat ([4]; 31 g/ha active ingredient) [%] | Growth inhibition rate (%) Wheat [5] [%] | Growth inhibition rate (%) Crabgrass [6] [%] | Growth inhibition rate (%) Rice [7] [%] | Growth inhibition rate (%) Barnyardgrass [8] [%] | Growth inhibition rate (%) Corn [9] [%] | Growth inhibition rate (%) redroot pigweed ([10]; 31 g/ha active ingredient) [%] | Growth inhibition rate (%) Prickly sida ([11]; 31 g/ha active ingredient) [%] | Growth inhibition rate (%) Barnyardgrass ([12]; 31 g/ha active ingredient) [%] | Growth inhibition rate (%) Prickly sida [13] [%] | Growth inhibition rate (%) Velvetleaf [14] [%] | Growth inhibition rate (%) Greenfoxtail [15] [%] | Growth inhibition rate (%) Soybean [16] [%] | Growth inhibition rate (%) Rice ([17]; 31 g/ha active ingredient) [%] | Growth inhibition rate (%) redroot pigweed [18] [%] | Growth inhibition rate (%) Velvetleaf ([19]; 31 g/ha active ingredient) [%] | Growth inhibition rate (%) Soybean ([20]; 31 g/ha active ingredient) [%] | other results |
| --- | --- | --- | --- | --- | --- | --- | --- | --- | --- | --- | --- | --- | --- | --- | --- | --- | --- | --- | --- | --- | --- |
| CCSC(=O)Oc1c(C(=O)c2ccc(S(C)(=O)=O)c(C(=O)OC)c2Cl)cnn1C [compound 27] | 40 | 80 | 100 | 10 | 10 | 95 | 90 | 100 | 0 | 95 | 70 | 100 | 100 | 95 | 98 | 0 | 80 | 100 | 80 | 90 | – |
| CCn1ncc(C(=O)c2ccc(S(C)(=O)=O)c(OCCOC)c2C)c1OC(=O)SC(C)C [compound 208] | 0 | 100 | 100 | 0 | 0 | 100 | 98 | 100 | 0 | 100 | 40 | 95 | 30 | 50 | 100 | 0 | 80 | 100 | 95 | 100 | – |
| COC(=O)c1c(S(C)(=O)=O)ccc(C(=O)c2cnn(C)c2OC(=O)SC(C)C)c1C [compound 86] | 30 | 90 | 95 | 20 | 0 | 100 | 90 | 95 | 0 | 95 | 80 | 95 | 90 | 95 | 95 | 0 | 95 | 100 | 95 | 85 | – |
| COCCOc1c(S(C)(=O)=O)ccc(C(=O)c2cnn(C)c2OC(=O)SC(C)C)c1C [compound 207] | 0 | 95 | 100 | 0 | 0 | 100 | 98 | 100 | 0 | 100 | 60 | 95 | 60 | 100 | 100 | 20 | 70 | 100 | 100 | 100 | – |
| CCSC(=O)Oc1c(C(=O)c2ccc(S(C)(=O)=O)c(OC)c2Cl)cnn1C [compound 214] | – | – | – | – | 0 | 100 | 100 | 100 | 0 | – | – | – | 90 | 90 | 100 | 20 | – | 90 | – | – | Growth inhibition rate (%) Corn ([1]; 63 g/ha active ingredient): 0%; Growth inhibition rate (%) Crabgrass ([2]; 63 g/ha active ingredient): 95%; Growth inhibition rate (%) Greenfoxtail ([3]; 63 g/ha active ingredient): 90%; Growth inhibition rate (%) Wheat ([4]; 63 g/ha active ingredient): 0%; Growth inhibition rate (%) redroot pigweed ([10]; 63 g/ha active ingredient): 100%; Growth inhibition rate (%) Prickly sida ([11]; 63 g/ha active ingredient): 70%; Growth inhibition rate (%) Barnyardgrass ([12]; 63 g/ha active ingredient): 98%; Growth inhibition rate (%) Rice ([17]; 63 g/ha active ingredient): 90%; Growth inhibition rate (%) Velvetleaf ([19]; 63 g/ha active ingredient): 80%; Growth inhibition rate (%) Soybean ([20]; 63 g/ha active ingredient): 100% |
| CCSC(=O)Oc1c(C(=O)c2ccc(S(C)(=O)=O)c(OCCCOC)c2C)cnn1C [compound 218] | 0 | 100 | 95 | 10 | 0 | 80 | 80 | 90 | 0 | 100 | 70 | 100 | 50 | 30 | 90 | 0 | 98 | 100 | 90 | 95 | – |
| CCSC(=O)Oc1c(C(=O)c2ccc(S(C)(=O)=O)c(CN(C)CC#N)c2C)cnn1C [compound 210] | 0 | 30 | 50 | 0 | 0 | 10 | 0 | 0 | 0 | 10 | 70 | 80 | 40 | 0 | 0 | 0 | 50 | 20 | 60 | 50 | – |
| CCC(C)SC(=O)Oc1c(C(=O)c2ccc(S(C)(=O)=O)c(C(=O)OC)c2Cl)cnn1CC (stereo not drawn) [compound 220] | – | – | – | – | 0 | 95 | 100 | 95 | 0 | – | – | – | 95 | 95 | 100 | 0 | – | 100 | – | – | Growth inhibition rate (%) Corn ([1]; 63 g/ha active ingredient): 0%; Growth inhibition rate (%) Crabgrass ([2]; 63 g/ha active ingredient): 60%; Growth inhibition rate (%) Greenfoxtail ([3]; 63 g/ha active ingredient): 70%; Growth inhibition rate (%) Wheat ([4]; 63 g/ha active ingredient): 0%; Growth inhibition rate (%) redroot pigweed ([10]; 63 g/ha active ingredient): 100%; Growth inhibition rate (%) Prickly sida ([11]; 63 g/ha active ingredient): 90%; Growth inhibition rate (%) Barnyardgrass ([12]; 63 g/ha active ingredient): 100%; Growth inhibition rate (%) Rice ([17]; 63 g/ha active ingredient): 80%; Growth inhibition rate (%) Velvetleaf ([19]; 63 g/ha active ingredient): 90%; Growth inhibition rate (%) Soybean ([20]; 63 g/ha active ingredient): 100% |
| CCSC(=O)Oc1c(C(=O)c2ccc(C(F)(F)F)cc2S(C)(=O)=O)cnn1CC [compound 68] | 10 | 40 | 60 | 0 | 0 | 60 | 100 | 100 | 0 | 75 | 70 | 95 | 95 | 100 | 30 | 40 | 60 | 98 | 80 | 70 | – |
